Measurements taken from patent publication US7612200B2, “Inhibitors of protein kinases” (Locus Pharmaceuticals, Inc., priority 2004, dated 2009).

Experiments:
[1] = target: c-MET (Homo sapiens, UniProt P08581); test: Kinase activity at ATP Km,app, c-MET; assay type: biochemical; settings: compound 2 μM
Experimental: (§1) Met Kinase Activity: In a final reaction volume of 25 μl, Met (h) (5-10 mU) is incubated with 8 mM MOPS pH 7.0, 0.2 mM EDTA, 250 μM KKKSPEGYVNIEFG, 10 mM MgAcetate and [γ-^33P-ATP] (specific activity approx. 500 cpm/pmol, concentration as required). The reaction is initiated by the addition of the MgATP mix. After incubation for 40 minutes at room temperature, the reaction is stopped by the addition of 5 μl of a 3% phosphoric acid solution. 10 μl of the reaction is then spotted onto a P30 filtermat and washed three times for 5 minutes in 75 mM phosphoric acid and once in methanol prior to drying and scintillation counting.

[2] = target: EGFR (Homo sapiens, UniProt P00533); test: Kinase activity at ATP Km,app, EGFR; assay type: biochemical; settings: compound 2 μM
[3] = target: Lck (Homo sapiens, UniProt P06239); test: Kinase activity at ATP Km,app, Lck; assay type: biochemical; settings: 40 min, compound 2 μM
Experimental: (§2) Lck Kinase Activity: In a final reaction volume of 25 ml, Lck (h) (5-10 mU) is incubated with 50 mM Tris pH 7.5, 0.1 mM EGTA, 0.1 mM Na3VO4, 250 μM KVEKIGEGTYGVVYK (Cdc2 peptide), 10 mM MgAcetate and [γ-^33P-ATP] (specific activity approx. 500 cpm/pmol, concentration as required). The reaction is initiated by the addition of the MgATP mix. After incubation for 40 minutes at room temperature, the reaction is stopped by the addition of 5 μl of a 3% phosphoric acid solution. 10 μl of the reaction is then spotted onto a P30 filtermat and washed three times for 5 minutes in 75 mM phosphoric acid and once in methanol prior to drying and scintillation counting.

[4] = target: LynA (Homo sapiens, UniProt P07948); test: Kinase activity at ATP Km,app, LynA; assay type: biochemical; settings: 40 min, compound 2 μM
Experimental: as §2, with “Lyn” for “Lck”, “μl, Lyn” for “ml, Lck”, “0.1% β-mercaptoethanol, 0.1 mg/ml poly(Glue, Tyr) 4:1,” for “250 μM KVEKIGEGTYGVVYK (Cdc2 peptide),”, “Filtermat A” for “P30 filtermat”

[5] = target: MAPKAP-K2 (Homo sapiens, UniProt P49137); test: Kinase activity at ATP Km,app, MAPKAP-K2; assay type: biochemical; settings: 40 min, compound 2 μM
Experimental: as §2, with “MAPKAP-K2 Kinase” for “Lck Kinase”, “25 μl, MAPKAP-K2” for “25 ml, Lck”, “mM Na-β-glycerophosphate” for “mM Tris”, “EGTA, […]” for “EGTA, 0.1”, “[…] KKLNRTLSVA,” for “mM Na3VO4, 250 μM KVEKIGEGTYGVVYK (Cdc2 peptide),”

[6] = target: PKA (Bos taurus, UniProt P00517); test: Kinase activity at ATP Km,app, PKA; assay type: biochemical, bovine; settings: 40 min, compound 2 μM
Experimental: as §1, with “PKA” for “Met”, “PKA (b)” for “Met (h)”, “30” for “250”, “LRRASLG (Kemptide),” for “KKKSPEGYVNIEFG,”, “the” for “then”, “50” for “75”

[7] = target: Src (Homo sapiens, UniProt P12931); test: Kinase activity at ATP Km,app, Src; assay type: biochemical; settings: 40 min, compound 2 μM
Experimental: as §1, with “cSRC” for “Met”, “(5-'0” for “(5-10”, “KVEKIGEGTYGVVYK (Cdc2 peptide),” for “KKKSPEGYVNIEFG,”, “concentratin” for “concentration”

Src, sequence (P12931 whole entry): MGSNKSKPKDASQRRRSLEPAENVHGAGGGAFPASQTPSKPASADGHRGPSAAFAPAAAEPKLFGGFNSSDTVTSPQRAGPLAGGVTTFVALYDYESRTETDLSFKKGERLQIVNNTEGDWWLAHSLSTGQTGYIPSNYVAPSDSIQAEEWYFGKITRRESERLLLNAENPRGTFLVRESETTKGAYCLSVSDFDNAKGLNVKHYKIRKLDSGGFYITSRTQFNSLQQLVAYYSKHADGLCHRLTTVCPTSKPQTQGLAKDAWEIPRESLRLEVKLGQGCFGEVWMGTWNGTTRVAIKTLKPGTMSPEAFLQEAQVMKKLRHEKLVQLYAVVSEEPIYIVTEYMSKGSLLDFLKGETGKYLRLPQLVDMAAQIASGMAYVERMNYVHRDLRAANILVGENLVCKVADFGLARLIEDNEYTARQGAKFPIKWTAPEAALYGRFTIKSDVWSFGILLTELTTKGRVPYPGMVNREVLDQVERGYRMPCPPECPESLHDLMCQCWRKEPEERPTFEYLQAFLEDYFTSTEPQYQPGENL
c-MET, sequence (P08581 25-1390): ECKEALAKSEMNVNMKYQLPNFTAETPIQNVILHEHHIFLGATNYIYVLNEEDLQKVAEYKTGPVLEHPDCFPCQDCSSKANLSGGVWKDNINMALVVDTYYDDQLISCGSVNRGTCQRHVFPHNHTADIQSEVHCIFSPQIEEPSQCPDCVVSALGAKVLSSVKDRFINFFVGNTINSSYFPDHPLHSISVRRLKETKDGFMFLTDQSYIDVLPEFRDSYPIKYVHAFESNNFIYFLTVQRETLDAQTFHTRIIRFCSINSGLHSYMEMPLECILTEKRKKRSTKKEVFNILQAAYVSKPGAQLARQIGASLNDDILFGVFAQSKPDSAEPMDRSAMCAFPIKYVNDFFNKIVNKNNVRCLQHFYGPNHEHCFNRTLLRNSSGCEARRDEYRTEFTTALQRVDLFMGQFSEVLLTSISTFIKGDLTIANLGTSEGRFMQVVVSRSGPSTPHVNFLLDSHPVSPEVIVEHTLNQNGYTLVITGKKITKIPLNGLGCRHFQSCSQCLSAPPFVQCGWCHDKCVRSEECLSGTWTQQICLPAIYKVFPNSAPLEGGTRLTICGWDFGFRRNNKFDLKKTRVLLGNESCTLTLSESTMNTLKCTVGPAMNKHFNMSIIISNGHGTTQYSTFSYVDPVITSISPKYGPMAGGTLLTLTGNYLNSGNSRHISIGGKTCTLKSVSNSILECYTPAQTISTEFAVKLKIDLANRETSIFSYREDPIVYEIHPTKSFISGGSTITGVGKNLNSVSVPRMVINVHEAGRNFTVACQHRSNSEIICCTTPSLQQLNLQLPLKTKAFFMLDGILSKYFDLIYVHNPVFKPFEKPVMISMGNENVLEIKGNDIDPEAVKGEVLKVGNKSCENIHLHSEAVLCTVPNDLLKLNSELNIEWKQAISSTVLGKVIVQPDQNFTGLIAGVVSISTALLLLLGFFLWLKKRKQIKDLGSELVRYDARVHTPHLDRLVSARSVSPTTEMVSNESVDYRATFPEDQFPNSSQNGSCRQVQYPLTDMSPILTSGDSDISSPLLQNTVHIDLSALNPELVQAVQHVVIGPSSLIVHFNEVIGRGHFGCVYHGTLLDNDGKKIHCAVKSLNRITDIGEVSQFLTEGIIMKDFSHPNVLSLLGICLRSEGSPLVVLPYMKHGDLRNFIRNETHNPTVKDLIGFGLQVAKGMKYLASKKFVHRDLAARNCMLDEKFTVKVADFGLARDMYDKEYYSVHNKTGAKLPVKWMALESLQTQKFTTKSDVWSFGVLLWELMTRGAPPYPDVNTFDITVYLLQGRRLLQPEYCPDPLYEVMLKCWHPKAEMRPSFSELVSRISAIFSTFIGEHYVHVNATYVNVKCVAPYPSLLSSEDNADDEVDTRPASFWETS
Lck, sequence (P06239 whole entry): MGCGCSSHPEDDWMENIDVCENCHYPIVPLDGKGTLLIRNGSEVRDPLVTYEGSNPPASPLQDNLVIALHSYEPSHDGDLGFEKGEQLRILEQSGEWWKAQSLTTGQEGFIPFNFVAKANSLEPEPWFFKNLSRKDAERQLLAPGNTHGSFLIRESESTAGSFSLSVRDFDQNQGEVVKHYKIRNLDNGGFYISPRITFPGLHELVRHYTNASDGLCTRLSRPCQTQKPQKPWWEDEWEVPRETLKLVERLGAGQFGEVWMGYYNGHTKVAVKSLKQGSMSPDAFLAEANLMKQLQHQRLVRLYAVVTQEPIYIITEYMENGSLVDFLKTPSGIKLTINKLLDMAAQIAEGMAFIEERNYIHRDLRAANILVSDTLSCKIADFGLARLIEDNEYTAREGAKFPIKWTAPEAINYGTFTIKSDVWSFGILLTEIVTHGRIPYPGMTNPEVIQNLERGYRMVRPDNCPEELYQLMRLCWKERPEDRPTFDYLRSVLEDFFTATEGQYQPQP
MAPKAP-K2, sequence (P49137 whole entry): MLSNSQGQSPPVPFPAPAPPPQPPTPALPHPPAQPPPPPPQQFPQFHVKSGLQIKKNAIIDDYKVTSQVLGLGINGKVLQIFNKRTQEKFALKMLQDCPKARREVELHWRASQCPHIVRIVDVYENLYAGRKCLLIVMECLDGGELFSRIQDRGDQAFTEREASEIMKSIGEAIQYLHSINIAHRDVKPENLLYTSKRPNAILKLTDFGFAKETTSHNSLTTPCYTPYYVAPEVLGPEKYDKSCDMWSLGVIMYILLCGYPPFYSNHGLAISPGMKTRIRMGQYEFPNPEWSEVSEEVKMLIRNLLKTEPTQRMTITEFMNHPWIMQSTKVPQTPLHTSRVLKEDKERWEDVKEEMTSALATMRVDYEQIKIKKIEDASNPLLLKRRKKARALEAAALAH
EGFR, sequence (P00533 25-1210, species assumed): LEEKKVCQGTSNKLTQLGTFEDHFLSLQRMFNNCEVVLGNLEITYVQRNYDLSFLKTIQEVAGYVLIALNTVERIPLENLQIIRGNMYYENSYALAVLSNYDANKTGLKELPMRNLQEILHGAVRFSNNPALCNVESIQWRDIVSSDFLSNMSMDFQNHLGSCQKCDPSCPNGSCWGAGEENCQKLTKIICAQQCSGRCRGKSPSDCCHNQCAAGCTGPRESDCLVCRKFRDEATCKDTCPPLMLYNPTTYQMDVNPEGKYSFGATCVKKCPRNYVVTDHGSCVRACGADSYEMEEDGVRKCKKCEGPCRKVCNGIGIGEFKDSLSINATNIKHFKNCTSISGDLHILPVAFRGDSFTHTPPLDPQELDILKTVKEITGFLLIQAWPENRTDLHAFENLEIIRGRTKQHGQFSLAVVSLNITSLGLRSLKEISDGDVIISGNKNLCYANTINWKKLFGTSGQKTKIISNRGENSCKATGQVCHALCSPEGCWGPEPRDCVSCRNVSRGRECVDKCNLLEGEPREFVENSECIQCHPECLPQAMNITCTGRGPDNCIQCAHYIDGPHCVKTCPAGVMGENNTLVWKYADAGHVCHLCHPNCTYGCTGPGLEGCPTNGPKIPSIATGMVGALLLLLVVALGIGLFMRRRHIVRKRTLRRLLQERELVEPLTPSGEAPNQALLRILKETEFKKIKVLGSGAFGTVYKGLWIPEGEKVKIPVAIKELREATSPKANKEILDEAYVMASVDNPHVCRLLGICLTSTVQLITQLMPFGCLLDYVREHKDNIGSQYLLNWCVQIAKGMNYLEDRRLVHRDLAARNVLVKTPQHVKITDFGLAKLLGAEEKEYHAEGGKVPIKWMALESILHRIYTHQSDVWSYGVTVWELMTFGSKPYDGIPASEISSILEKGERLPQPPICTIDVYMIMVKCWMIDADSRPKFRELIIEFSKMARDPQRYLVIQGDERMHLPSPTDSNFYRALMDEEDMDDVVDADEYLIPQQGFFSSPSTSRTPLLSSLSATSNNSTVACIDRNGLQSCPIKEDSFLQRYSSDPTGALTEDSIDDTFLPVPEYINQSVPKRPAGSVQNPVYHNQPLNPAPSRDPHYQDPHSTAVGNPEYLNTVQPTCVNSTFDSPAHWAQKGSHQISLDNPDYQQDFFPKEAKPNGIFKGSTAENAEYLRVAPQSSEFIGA
LynA, sequence (P07948 whole entry): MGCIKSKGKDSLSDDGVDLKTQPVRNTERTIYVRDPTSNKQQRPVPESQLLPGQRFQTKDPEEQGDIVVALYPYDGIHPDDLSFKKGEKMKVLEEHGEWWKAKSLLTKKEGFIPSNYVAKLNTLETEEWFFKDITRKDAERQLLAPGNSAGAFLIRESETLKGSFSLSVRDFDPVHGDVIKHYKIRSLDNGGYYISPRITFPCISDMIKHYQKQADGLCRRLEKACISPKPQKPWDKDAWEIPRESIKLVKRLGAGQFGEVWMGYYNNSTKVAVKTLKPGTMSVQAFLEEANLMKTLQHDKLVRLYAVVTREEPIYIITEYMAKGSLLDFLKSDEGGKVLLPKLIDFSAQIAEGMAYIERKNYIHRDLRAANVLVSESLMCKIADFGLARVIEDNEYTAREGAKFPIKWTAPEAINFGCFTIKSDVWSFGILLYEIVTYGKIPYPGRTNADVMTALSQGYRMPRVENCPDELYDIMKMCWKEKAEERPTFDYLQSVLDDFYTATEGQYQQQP

Structure (SMILES)	% Inhibition at ATP Km,app [1]	% Inhibition at ATP Km,app [2]	inhibition at 2 µM [3]	inhibition at 2 µM [4]	inhibition at 2 µM [5]	inhibition at 2 µM [6]	inhibition at 2 µM [7]
CC(C)(C)c1cc(C(=O)N2CCNC(=O)CC2)c(NC(=O)Nc2ccc(Oc3ccncc3)cc2)s1 [Example 4, 1-(5-tert-Butyl-3-(5-oxo-[1,4]diazepane-1-carbonyl)thiophen-2-yl)-3-(4-(pyridin-4-yloxy)phenyl)urea]	0-25%	0-25%	0 to 25%	51 to 76%	0 to 25%	0 to 25%	0 to 25%
CC(C)(C)c1cc(C(=O)N2CCNS(=O)(=O)CC2)c(NC(=O)Nc2ccc(Oc3ccncc3)cc2)s1 [Example 1, 1-(5-tert-Butyl-3-(1,1-dioxo-1λ^6-[1,2,5]thiadiazepane-5-carbonyl)thiophen-2-yl)-3-(4-(pyridin-4-yloxy)phenyl)urea]	0-25%	0-25%	0 to 25%	26 to 50%	0 to 25%	0 to 25%	0 to 25%
CC(C)(C)c1cc(C(=O)N2CCNC(=O)C2)c(NC(=O)Nc2ccc(Oc3ccncc3)cc2)s1 [Example 2, 1-(5-tert-Butyl-3-(3-oxo-piperazine-1-carbonyl)thiophen-2-yl)-3-(4-(pyridin-4-yloxy)phenyl)urea]	26-50%	0-25%	0 to 25%	26 to 50%	0 to 25%	0 to 25%	0 to 25%
